Data from patent publication US6479534B1, “Indoline derivatives and method of treating obesity” (priority 2000, dated 2002).
Counter-ions that a name gives are not always drawn. Like-named read-outs stand apart in the source and are kept apart here. One block for each compound: values may come before it.

Key:
5-HT2C receptor = target: T1, 5-HT2C receptor (Homo sapiens, UniProt P28335); assay: Radioligand binding to 5-HT2C receptor ([3H]-5-HT, CHO cell line); conditions: read-out: Ki (2C)
T1 construct: expressed in transfected cells; host or cells: CHO cell line
T1 sequence (P28335 33-458): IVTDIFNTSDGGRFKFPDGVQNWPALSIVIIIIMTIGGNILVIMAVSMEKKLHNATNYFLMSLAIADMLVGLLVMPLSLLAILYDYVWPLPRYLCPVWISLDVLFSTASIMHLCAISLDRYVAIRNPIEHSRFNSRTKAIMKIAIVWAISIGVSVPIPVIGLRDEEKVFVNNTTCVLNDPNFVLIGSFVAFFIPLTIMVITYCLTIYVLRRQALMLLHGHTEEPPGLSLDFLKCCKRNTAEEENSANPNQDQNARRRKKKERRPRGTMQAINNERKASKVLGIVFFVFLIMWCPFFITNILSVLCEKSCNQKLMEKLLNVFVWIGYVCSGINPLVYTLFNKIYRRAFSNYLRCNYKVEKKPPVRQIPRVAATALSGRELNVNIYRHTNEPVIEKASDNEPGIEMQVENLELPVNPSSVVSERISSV
Method: (§1) 1. Binding to Serotonin Receptors
(§2) The binding of compounds of formula (I) to serotonin receptors was determined in vitro by standard methods. The preparations were investigated in accordance with the assays given hereinafter.
Method (a): For the binding to the 5-HT2C receptor the 5-HT2C receptors were radiolabelled with [^3H]-5-HT. The affinity of the compounds for 5-HT2C receptors in a CHO cell line was determined according to the procedure of D. Hoyer, G. Engel and H. O. Kalkman, European J. Pharmacol., 1985, 118, 13-23.

5-HT2A receptor = target: T2, 5-HT2A receptor (Homo sapiens, UniProt P28223); assay: Radioligand binding to 5-HT2A receptor ([125I]-DOI, CHO cell line); conditions: read-out: Ki (2A)
T2 construct: expressed in transfected cells; host or cells: CHO cell line
T2 sequence (P28223 whole entry): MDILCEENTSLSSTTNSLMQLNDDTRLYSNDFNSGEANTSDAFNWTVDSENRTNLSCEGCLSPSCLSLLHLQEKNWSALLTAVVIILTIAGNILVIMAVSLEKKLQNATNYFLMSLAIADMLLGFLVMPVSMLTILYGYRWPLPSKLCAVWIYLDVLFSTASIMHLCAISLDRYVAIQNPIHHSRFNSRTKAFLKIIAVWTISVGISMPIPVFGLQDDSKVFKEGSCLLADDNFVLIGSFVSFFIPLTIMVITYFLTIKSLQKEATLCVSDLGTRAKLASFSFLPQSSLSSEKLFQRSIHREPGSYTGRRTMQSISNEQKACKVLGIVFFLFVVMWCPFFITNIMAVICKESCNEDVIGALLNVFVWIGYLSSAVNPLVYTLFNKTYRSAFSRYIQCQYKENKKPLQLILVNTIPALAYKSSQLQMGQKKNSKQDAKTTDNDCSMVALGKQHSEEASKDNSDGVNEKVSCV
Method: as §1, §2
Method (c): For the binding to the 5-HT2A receptor the 5-HT2A receptors were radiolabelled with [^125I]-DOI. The affinity of the compounds for 5-HT2A receptors in a CHO cell line was determined according to the procedure of D. J. McKenna and S. J. Peroutka, J. Neurosci., 1989, 9/10, 3482-90.

human 5-HT2B receptors = target: T3, human 5-HT2B receptors (Homo sapiens, UniProt P41595); assay: Radioligand binding to 5-HT2B receptor ([3H]-5-HT, CHO cell line)
T3 construct: expressed in transfected cells; host or cells: CHO cell line
T3 sequence (P41595 whole entry): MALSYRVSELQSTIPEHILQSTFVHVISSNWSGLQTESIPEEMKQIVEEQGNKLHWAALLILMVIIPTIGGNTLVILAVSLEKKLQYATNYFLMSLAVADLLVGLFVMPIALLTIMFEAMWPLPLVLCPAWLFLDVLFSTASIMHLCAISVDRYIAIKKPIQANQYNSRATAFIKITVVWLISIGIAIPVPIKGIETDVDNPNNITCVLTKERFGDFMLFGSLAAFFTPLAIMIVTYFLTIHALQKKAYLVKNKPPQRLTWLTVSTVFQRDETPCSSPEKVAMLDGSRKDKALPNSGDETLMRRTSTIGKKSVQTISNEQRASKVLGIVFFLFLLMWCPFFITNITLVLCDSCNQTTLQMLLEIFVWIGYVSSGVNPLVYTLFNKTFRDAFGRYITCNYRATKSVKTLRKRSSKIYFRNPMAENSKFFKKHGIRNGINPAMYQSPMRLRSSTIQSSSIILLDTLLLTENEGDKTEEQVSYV
Method: as §1, §2
Method (b): For the binding to the 5-HT2B receptor the 5-HT2B receptors were radiolabelled with [^3H]-5-HT. The affinity of the compounds for human 5-HT2B receptors in a CHO cell line was determined according to the procedure of K. Schmuck, C. Ullmer, P. Engels and H. Lubbert, FEBS Lett., 1994, 342, 85-90.

h5-HT2A receptors = target: T4, h5-HT2A receptors (Homo sapiens, UniProt P28223); assay: Functional activity, FLIPR calcium assay, CHO cells expressing h5-HT2A; assay type: cell-based; conditions: for h5-HT2A Relative Efficacy: maximum fluorescent signal relative to 10 μM 5-HT (defined as 100%)
T4 construct: expressed in transfected cells; host or cells: CHO cells
T4 sequence (P28223 whole entry): as the sequence (P28223 whole entry) above
Method: (§3) The functional activity of compounds of formula (I) was assayed using a Fluorimetric Imaging Plate reader (FLIPR):
(§4) CHO cells expressing either the h5-HT2C or h5-HT2A receptors were counted and plated into standard 96 well microtitre plates before the day of testing to give a confluent monolayer. The following day the cells were dye-loaded with the calcium sensitive dye Fluo 3-AM by incubation with serum free culture maintenance media containing pluronic acid and Fluo 3-AM dissolved in DMSO at 37° C. in a CO2 incubator at 95% humidity for approximately 90 minutes. Unincorporated dye was removed by washing with Hanks balanced salt solution containing 20 mM HEPES and 2.5 mM probenecid (the assay buffer) using an automated cell washer to leave a total volume of 100 μl/well.
(§5) The drug (dissolved in 50 μL of assay buffer) was added at a rate of 70 μL/sec to each well of the FLIPR 96 well plate during fluorescence measurements. The measurements are taken at 1 sec intervals and the maximum fluorescent signal was measured (approx 10-15 secs after drug addition) and compared with the response produced by 10 μM 5-HT (defined as 100%) to which it is expressed as a percentage response (relative efficacy).Dose response curves were constructed using Graphpad Prism (Graph Software Inc.).

h5-HT2C receptors = target: T5, h5-HT2C receptors (Homo sapiens, UniProt P28335); assay: Functional activity, FLIPR calcium assay, CHO cells expressing h5-HT2C; assay type: cell-based; conditions: for h5-HT2C Relative Efficacy: maximum fluorescent signal relative to 10 μM 5-HT (defined as 100%)
T5 construct: expressed in transfected cells; host or cells: CHO cells
T5 sequence (P28335 33-458): T1 sequence (P28335 33-458)
Method: as §3, §4, §5

[1] = [3H]-5-HT, human receptor, CHO cell line, read-out: Ki (2B)
[2] = FLIPR, Fluo 3-AM, CHO cells, read-out: h5-HT2C EC50

Structure (SMILES): COc1c(F)ccc2c1C1CCCC1N2CC(C)N (mixture of isomers) [Example 20, (2′S)-[1-[4-(7-Fluoro-1,2,3,3a,4,8b-hexahydro-8-methoxycyclopent[b]indolyl)]-2-propylamine fumarate]
Ki (5-HT2C receptor): 318 nM
Ki (5-HT2A receptor): 481 nM
Ki (human 5-HT2B receptors): 367 nM
EC50 (h5-HT2A receptors; FLIPR, Fluo 3-AM, CHO cells): 5490 nM
h5-HT2A Relative Efficacy (h5-HT2A receptors): 17%
EC50 (h5-HT2C receptors): 464 nM
h5-HT2C Relative Efficacy (h5-HT2C receptors): 62%

melting point: 172 °C (dec.)
Structure (SMILES): NCCN1c2ccccc2[C@H]2CCC[C@H]21.O=C(O)/C=C/C(=O)O (racemic)

Structure (SMILES): C[C@H](N)CN1c2cc(Cl)c(F)cc2C2CCCC21 (single isomer, unassigned; isomer i) [Example 10, (2′S)-1-[4-(6-Chloro-7-fluoro-1,2,3,3a,4,8b-hexahydrocyclopent[b]indolyl)]-2-propylamine isomer I fumarate]
Ki (5-HT2C receptor): 164 nM
Ki (5-HT2A receptor): 983 nM
Ki (human 5-HT2B receptors; [1]): 109 nM
h5-HT2A Relative Efficacy (h5-HT2A receptors): 20%
EC50 (h5-HT2C receptors; [2]): 737 nM

Structure (SMILES): COc1cc2c(cc1F)C1CCCC1N2C[C@H](C)N (single isomer, unassigned; isomer i) [Example 19, (2′S)-1-[4-(7-Fluoro-1,2,3,3a,4,8b-hexahydro-6-methoxycyclopent[b]indolyl)]-2-propylamine isomer I 0.7 fumarate]
Ki (5-HT2C receptor): 88 nM
Ki (5-HT2A receptor): 1160 nM
Ki (human 5-HT2B receptors): 513 nM
h5-HT2A Relative Efficacy (h5-HT2A receptors): 0%
EC50 (h5-HT2C receptors): 391 nM
h5-HT2C Relative Efficacy (h5-HT2C receptors): 84%

Structure (SMILES): C[C@H](N)CN1c2cc(Cl)ccc2[C@@H]2CCC[C@@H]21 [Example 2, (2′S, 3aS, 8b5)-[1-[4-(6-Chloro-1,2,3,3a,4,8b-hexahydrocyclopent[b]indolyl)]-2-propylamine hydrochloride]
Ki (5-HT2C receptor): 133 nM
Ki (5-HT2A receptor): 726 nM
Ki (human 5-HT2B receptors; [1]): 302 nM
h5-HT2A Relative Efficacy (h5-HT2A receptors): 7%
EC50 (h5-HT2C receptors; [2]): 585 nM
